Columns and labels:
[1] = tested on: HepG2 cells; experiment: Highest concentration at which cells were viable after 72 hr exposure; format: cell-based, human
[2] = tested on: mgc4171; experiment: Real-time quantitative PCR of PLsis marker gene expression; format: cell-based, human; conditions: HepG2 cells, 24 hr exposure, relative value, control group = 1.0, GAPDH internal standard, n=3
Description: (§1) Using RNeasy Mini Kit (QIAGEN), total RNA was purified from the cells, and cDNA was synthesized in a 100 μL system using TaqMan Reverse Transcription Reagents (PE Applied Biosystems).
(§2) As the primer for glyceraldehyde-3-phosphoric acid dehydrogenase (GAPDH) and VIC labeled probe, those attached to TaqMan GAPDH Control Reagents (PE Applied Biosystems) were used.
(§3) Using 100 μL of the reaction mixture containing 5 μL of cDNA (1×TaqMan Universal PCR Master Mix (PE Applied Biosystems), 200 nM forward primer, 200 nM reverse primer and 200 nM TaqMan probe), 40 cycles of (1 cycle=95° C., 15 sec; 60° C., 1 min) PCR were performed. PCR and fluorescence detection were performed using ABI PRISM Sequence Detector 7000 (PE Applied Biosystems). As the internal standard, GAPDH was used to amend the measurement values. For the determination of significant difference, t-test was used (n=3).
(§4) For each test compound, the expression variation rate of 12 genes each relative to the control group was determined.

[3] = tested on: lss; experiment: as above; format: cell-based, human; conditions: HepG2 cells, 24 hr exposure, relative value, control group = 1.0, GAPDH internal standard, n=3
Description: as §1, §2, §3, §4

[4] = tested on: asah1; experiment: as above; format: cell-based, human; conditions: HepG2 cells, 24 hr exposure, relative value, control group = 1.0, GAPDH internal standard, n=3
Description: as §1, §2, §3, §4

[5] = tested on: serpina3; experiment: as above; format: cell-based, human; conditions: HepG2 cells, 24 hr exposure, relative value, control group = 1.0, GAPDH internal standard, n=3
Description: as §1, §2, §3, §4

[6] = tested on: kiaa1001; experiment: as above; format: cell-based, human; conditions: HepG2 cells, 24 hr exposure, relative value, control group = 1.0, GAPDH internal standard, n=3
Description: as §1, §2, §3, §4

[7] = tested on: fabp1; experiment: as above; format: cell-based, human; conditions: HepG2 cells, 24 hr exposure, relative value, control group = 1.0, GAPDH internal standard, n=3
Description: as §1, §2, §3, §4

[8] = tested on: slc2a3; experiment: as above; format: cell-based, human; conditions: HepG2 cells, 24 hr exposure, relative value, control group = 1.0, GAPDH internal standard, n=3
Description: as §1, §2, §3, §4

[9] = tested on: flj22362; experiment: as above; format: cell-based, human; conditions: HepG2 cells, 24 hr exposure, relative value, control group = 1.0, GAPDH internal standard, n=3
Description: as §1, §2, §3, §4

[10] = tested on: hpn; experiment: as above; format: cell-based, human; conditions: HepG2 cells, 24 hr exposure, relative value, control group = 1.0, GAPDH internal standard, n=3
Description: as §1, §2, §3, §4

[11] = tested on: tagln; experiment: as above; format: cell-based, human; conditions: HepG2 cells, 24 hr exposure, relative value, control group = 1.0, GAPDH internal standard, n=3
Description: as §1, §2, §3, §4

[12] = tested on: depp; experiment: as above; format: cell-based, human; conditions: HepG2 cells, 24 hr exposure, relative value, control group = 1.0, GAPDH internal standard, n=3
Description: as §1, §2, §3, §4

[13] = tested on: nr0b2; experiment: as above; format: cell-based, human; conditions: HepG2 cells, 24 hr exposure, relative value, control group = 1.0, GAPDH internal standard, n=3
Description: as §1, §2, §3, §4

[14] = tested on: HepG2 cells; experiment: Electron-microscopic examination of PLsis induction potential (myelin-like structure)
Text: Using 30 kinds of the following commercially available drugs as test compounds, the level of PLsis induction potential was examined with the emergence of an intracellular myelin-like structure or a structure having a high electron density, which is an early image thereof, as an index by electronmicroscopic observation.
HepG2 cells (purchased from ATCC) were exposed to the test compound by a conventional method. HepG2 cells used were of the cell growth phase. The attached HepG2 cells were washed twice with. Dulbecco's phosphate buffered saline (calcium and magnesium salt free; PBS(−))(Dainippon Pharmaceutical Co., Ltd.) containing 0.05 w/v % EDTA, detached with a cell dissociation solution of 0.25 vol % trypsin-1 mmol/L EDTA (Gibco BRL) diluted 2-fold with PBS(−), centrifuged to remove the supernatant, and adjusted to a concentration of 2×10^5 cells/250 μL with a culture medium [Dulbecco's modified Eagle medium (DMEM)(Gibco BRL) supplemented with 50 U/mL penicillin (Gibco BRL)-[…] streptomycin (Gibco BRL) and 5 vol % FBS (Bio whittaker)]. DMSO alone or a culture medium containing the above-mentioned test compound in DMSO solution was dispensed to a well by 250 μL, the above-mentioned cell suspension (250 μL) was added, and cultured in a CO2 incubator (7100; Napco) under an atmosphere of 5% CO2—95% air at 37° C.
After culture for 72 hr, the culture medium was removed, and the cells were fixed with 1 w/v % glutaraldehyde solution. After fixing with 2 w/v % osmic acid for 2 hr by a conventional method and dehydrating with an alcohol series, the cells were embedded in a resin (Quetol 812). Ultrathin slices were prepared and, after electron staining, observed with an electron microscope (H-300; Hitachi) and photographed in 3 or more pictures per each sample (magnification ×5000). The processing after post-fixation was performed by Applied Medical Research.

Row | SMILES | addition concentration (highest concentration at which cells survived after 72 hr of culture) [1] | expression variation rate mgc4171 [2] | expression variation rate lss [3] | expression variation rate asah1 [4] | expression variation rate serpina3 [5] | expression variation rate kiaa1001 [6] | expression variation rate fabp1 [7] | expression variation rate slc2a3 [8] | expression variation rate flj22362 [9] | expression variation rate hpn [10] | expression variation rate tagln [11] | expression variation rate depp [12] | expression variation rate nr0b2 [13] | frequency of appearance of myelin-like structure [14]
1 | CC[C@H]1OC(=O)[C@H](C)[C@@H](O[C@H]2C[C@@](C)(OC)[C@@H](O)[C@H](C)O2)[C@H](C)[C@@H](O[C@@H]2O[C@H](C)C[C@H](N(C)C)[C@H]2O)[C@](C)(O)C[C@@H](C)C(=O)[C@H](C)[C@@H](O)[C@]1(C)O [erythromycin] | 25 µmol/L | 0.86 | 0.87 | 0.90 | 0.85 | 0.78 | 0.73 | 0.73 | 0.92 | 0.87 | 0.85 | 0.71 | 0.90 | −
2 | CC(C)NCC(O)c1ccc(NS(C)(=O)=O)cc1 (stereo not shown) [sotalol] | 25 µmol/L | 0.72 | 0.88 | 1.39 | 0.78 | 0.84 | 0.98 | 1.53 | 0.85 | 0.79 | 0.80 | 0.80 | 0.63 | −
3 | O=C(CCCN1CCC(O)(c2ccc(Cl)cc2)CC1)c1ccc(F)cc1 [haloperidol] | 8.3 µmol/L | 1.24 | 1.52 | 0.77 | 1.31 | 1.32 | 1.50 | 0.44 | 0.93 | 1.43 | 0.52 | 1.38 | 1.49 | −
4 | CCCCc1oc2ccccc2c1C(=O)c1cc(I)c(OCCN(CC)CC)c(I)c1 [amiodarone] | 8.3 µmol/L | 1.32 | 1.82 | 1.69 | 1.17 | 1.56 | 2.01 | 0.35 | 1.07 | 2.15 | 0.56 | 1.12 | 1.35 | ++
5 | CC(C)N(CCC(C(N)=O)(c1ccccc1)c1ccccn1)C(C)C (stereo not shown) [disopyramide] | 25 µmol/L | 1.21 | 1.14 | 1.85 | 0.99 | 0.94 | 1.02 | 1.03 | 0.98 | 1.12 | 0.99 | 0.90 | 0.63 | −
6 | Clc1ccccc1CNCC1CCC(CNCc2ccccc2Cl)CC1 (stereo not shown) [AY-9944] | 8.3 µmol/L | 1.63 | 4.78 | 4.71 | 1.97 | 1.68 | 3.16 | 0.22 | 1.45 | 2.68 | 0.21 | 3.32 | 2.71 | ++
7 | CN(C)CCC=C1c2ccccc2CCc2ccccc21 [amitriptyline] | 25 µmol/L | 2.22 | 1.79 | 3.10 | 3.01 | 2.11 | 2.39 | 0.22 | 1.80 | 2.20 | 0.23 | 5.08 | 1.64 | +++
8 | Cc1cc(NS(=O)(=O)c2ccc(N)cc2)no1 [sulfamethoxazole] | 25 µmol/L | 0.78 | 0.82 | 1.26 | 0.98 | 0.84 | 0.85 | 1.11 | 0.87 | 0.89 | 0.99 | 0.70 | 0.82 | −

Source: patent publication US20070218460A1, “Method of Estimating Toxicity of Drug” (TAKEDA PHARMACEUTICAL COMPANY LIMITED, priority 2003, published 2007)
